Structures are written as SMILES.

Among the data in patent US6063814A, “Phorbol esters as anti-neoplastic and white blood cell elevating agents” (priority 1997, dated 2000) are HL-60 cell differentiation values, retold here.

The test relates to HL-60 cells. Description: TPA + low doses of Ara-C, HL-60 differentiation. It counts as cell-based, human. As to conditions: Ara-C alone, low dose 100 ng/ml. The source says:
(2) TPA+Low Doses of Ara-C:

Consider `Nc1ccn([C@@H]2O[C@H](CO)[C@@H](O)[C@@H]2O)c(=O)n1` [Ara-C, cytarabine, reference compound], for which the HL-60 cell differentiation entry is on record as “could induce cell differentiation”.
